Calls of active or inactive are those of the source. The calls are words filed in the database; no cut-off is given here.

The test system of data set [1] is Neuroblastoma cell. Kind of data set: Antiproliferative activity against human Neuroblastoma cell assessed as inhibition of cell growth incubated for 60 hrs by CCK-8 method. Format: functional, cell-based.
Data set [2] can be described thus: Antiproliferative activity against human Embryonic lung cell assessed as inhibition of cell growth incubated for 60 hrs by CCK-8 method. Format: toxicity, cell-based.

Turning to `N#C[Se]CCCOc1ccc2cc(C(=O)N3N=C(c4ccc(Br)cc4)CC3c3ccc(F)cc3)c(=O)oc2c1` (centres undefined), the result in data set [1] was Active. Also, the Activity entry in data set [2] was “Non-toxic”.

In the case of `COc1ccc(C2CC(c3ccc(F)cc3)=NN2C(=O)c2cc3ccc(OCCC[Se]C#N)cc3oc2=O)cc1` (centres undefined), the result in data set [1] was Active. In data set [2], the Activity entry was “Non-toxic”.
